Test results published in patent US20220402917A1, “COMPOUND AS SMALL MOLECULE INHIBITOR PD-1/PD-L1 AND APPLICATION THEREOF” (MEDSHINE DISCOVERY INC., priority 2019, published 2022).
pIC50: −log10 of the molar value.

Experiments:
PD1/PD-L1 [1] = target: T1, PD1/PD-L1 (Homo sapiens, UniProt Q9NZQ7); assay: PD-1/PD-L1 homogeneous time-resolved fluorescence (HTRF) binding experiment; set-up: purchased BPS Biosciences; details: HTRF (TR-FRET), PD-L1-biotin, PD1-Eu
From the text: Experimental Example 1: PD-1/PD-L1 Homogenouse Time-Resolved Fluorescence (HTRF) Binding Experiment
When the PD-1 molecule as the donor is very close to the PD-L1 molecule as the acceptor, the donor molecule will transfer the energy to the receptor molecule, which in turn causes the receptor molecule to emit fluorescence. The ability of small molecules to prevent the binding of PD-L1 to PD-1 can be tested by detecting the intensity of fluorescence. A homogeneous time-resolved fluorescence (HTRF) binding experiment is used to detect the ability of the compounds of the present disclosure to inhibit the binding of PD-1/PD-L1.
PD1/PD-L1 TR-FRET detection kit was purchased from BPS Biosciences. Nivo multi-label analyzer (PerkinElmer).
PD1-Eu, Dye-labeled acceptor, PD-L1-biotin and compounds to be tested were diluted with the buffer in the kit. The compounds to be tested were subjected to 5-fold dilution to eight concentration gradients with a row gun. That is, from 40 μM to 0.5 nM, the DMSO concentration was 4%, and a double-well experiment was set up. 5 μL of inhibitor with each concentration gradient were added to the microwell plate, and 5 μL buffer containing 4% DMSO and 5 μL PD-L1-biotin (PD-L1-biotin) (60 nM) were added into well with the maximum signal (Max) and the well with the minimum signal (Min), only 5 μL of buffer was added to the well with the minimum signal (Min), and the incubation was conducted at 25° C. for 20 minutes. After the incubation was completed, 5 μL of diluted PD1-Eu (10 nM) and […] were added to each well. The reaction system was placed at 25° C. for 90 minutes. The TR-FRET signal was read by a multi-label analyzer after the reaction was completed.
Using the equation (sample−Min)/(Max−Min)×100% to convert the raw data into inhibition rate, and the IC50 value can be obtained by curve fitting with four parameters (obtained from log(inhibitor) vs. response—Variable slope mode in GraphPad Prism). Table 1 provides the inhibitory activity of the compounds of the examples of the present disclosure on PD1/PD-L1 binding
Target sequence in this assay (Q9NZQ7 19-239 limits assumed): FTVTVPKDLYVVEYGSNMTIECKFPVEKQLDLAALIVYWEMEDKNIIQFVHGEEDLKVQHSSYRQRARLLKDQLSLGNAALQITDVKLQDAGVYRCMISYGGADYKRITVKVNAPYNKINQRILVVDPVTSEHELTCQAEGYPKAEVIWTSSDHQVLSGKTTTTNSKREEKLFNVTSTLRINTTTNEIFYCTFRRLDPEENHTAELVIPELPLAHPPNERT

PD1/PD-L1 [2] = target: T1, PD1/PD-L1; assay: NFAT activity test (TCR Activitor/PD-L1 CHO cells with PD-1/NFAT Reporter-Jurkat cells); type: cell-based; set-up: host or cells: TCR Activitor/PD-L1 CHO cells; PD-1/NFAT Reporter-Jurkat cells; details: TCR Activitor/PD-L1 CHO cells + PD-1/NFAT Reporter-Jurkat cells, 5 hours, luciferase; for pIC50: read-out: IC50, inhibitory activity on PD1/PD-L1 binding (NFAT activity test)
In short: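 TCR activator/PD-L1 CHO cells were pretreated 30 min at 37 °C with compound (20 μM to 0.25 nM, 5-fold steps, 2% DMSO). PD-1/NFAT reporter Jurkat cells were then added for 5 h at 37 °C. NFAT-driven luciferase read by Bright-Glo luminescence, normalised to Min/Max, IC50 from 4-parameter fit.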
Target sequence in this assay (Q9NZQ7 19-290): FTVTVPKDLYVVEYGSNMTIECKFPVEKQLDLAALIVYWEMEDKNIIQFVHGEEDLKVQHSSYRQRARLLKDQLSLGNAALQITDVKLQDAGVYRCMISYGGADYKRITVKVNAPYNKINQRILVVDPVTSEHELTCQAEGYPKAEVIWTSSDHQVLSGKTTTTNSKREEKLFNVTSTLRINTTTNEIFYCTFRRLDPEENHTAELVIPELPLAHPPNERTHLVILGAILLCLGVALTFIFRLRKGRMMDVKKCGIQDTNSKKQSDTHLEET

[3] = target: T2, PD-L1 in MDA-MR-231 cells (Homo sapiens, UniProt Q9NZQ7); assay: Effect on expression level of PD-L1 in MDA-MR-231 cells (FACS); type: cell-based; details: 24 hours incubation, FACS detection of cell surface PD-L1
T2 construct: endogenous in cells; host or cells: MDA-MB-231
T2 sequence (Q9NZQ7 19-290): as above
Experimental: Experimental Example 2: Using MDA-MR-231 Cells to Detect the Effect of Compounds on the Expression Level of PD-L1
The use of a triple-negative breast cancer cell line (MDA-MB-231) is an indirect method to assess PD-L1 endocytosis. PD-L1 molecules on the cell surface can be degraded by lysosomal and proteasome pathways, and small molecule inhibitors are added to induce PD-L1 endocytosis. After co-incubating small molecules with MDA-MB-231 cells for 24 hours, flow cytometry (Fluorescence-activated Cell Sorting, FACS) is used to detect the content of PD-L1 on the cell surface, which can indirectly reflect the effect of small molecule-induced PD-L1 endocytosis. Flow cytometry (FACS) is used to detect the effect of the compounds of the present disclosure on the expression level of PD-L1 in MDA-MR-231 cells.
Phosphate buffer (DPBS), 1640 medium, penicillin-streptomycin, fetal bovine serum, non-essential amino acids, 2-hydroxy-1-ethanethiol (2-ME), human interferon γ, LIVE/DEAD staining solution, staining buffer, fixation buffer, 0.25% trypsin, EDTA, anti-human PD-L1, anti-human PD-L1 isotype.
1640 complete medium preparation: 50 mL of fetal bovine serum, 5 mL of non-essential amino acids, 5 mL of penicillin-streptomycin and 0.5 mL of 2-hydroxy-1-ethanethiol were added to 439.5 mL of 1640 medium, and evenly mixed.
10 mM EDTA preparation: 1 mL of 0.5M EDTA was added to 49 mL of DPBS, and evenly mixed.
1) MDA-MB-231 cell counting and plating: The culture flask was taken out, the medium was removed and the culture flask was rinsed once with DPBS. After the culture flask was rinsed, 3 mL of 0.25% trypsin was added to the culture flask and the culture flask was placed in a 37° C. incubator for 1.5 min. The culture flask was taken out, 9 mL of 1640 complete medium was added to stop the reaction, the cells was transferred to a 50 mL centrifuge tube, and centrifuged at 1000 rpm for 5 min at 37° C. An appropriate volume of medium was added to re-suspend the cells according to the number of cells, and the number of cells was counted with a cell counter. The cell concentration was adjusted to 5×10^5 cells/mL with medium. Planking: A volume of 200 μL of cell suspension was added to each well of a 96-well plate, ensure that the number of cells in each well was 1×10^5. The cells were incubated overnight in an incubator. 2) Drug incubation: 100-fold dilution of compounds were prepared, and the drug was subjected to a 5-fold gradient dilution. 2 μL of each 100-fold dilution of compounds were added to each well. The cells were incubated in an incubator at 37° C. for 24 hours. 3) PD-L1 cell staining and FACS detection: the culture plate was taken out and the supernatant medium was discarded. The cells were washed once with 200 μL 1×PBS. 100 μL of EDTA (final concentration of 10 mM) was added to the cell suspension, and the cell suspension was treated at 37° C. for 10 min. Then after the cell suspension was centrifuged at 1500 rpm for 5 min, the cell suspension was washed once with 200 μL of staining solution. Staining: anti-human PD-L1 (2 μL per well) and LIVE/DEAD staining solution (1:1000) were diluted in staining solution, 50 μL of the staining solution was added to each well, and the staining was conducted at 4° C. for 30 min. Then the solution was washed twice with 200 μL of staining solution. Fixation: 100 μL of fixing solution was added to each well, the fixation was conducted at 4° C. for 15 min. The solution was then washed twice with 200 μL of staining solution, and 150 μL of solution was added to re-suspend the cells, followed by FACS detection.
Table 2 provides the effects of the compounds of the examples of the present disclosure on the expression level of PD-L1 in MDA-MR-231 cells.

Row | Compound | pIC50 (PD1/PD-L1 [1]) | Maximum effect (induction fold) (PD1/PD-L1 [2]) | pIC50 (PD1/PD-L1 [2]) | pIC50 [3]
1 | Cc1c(NC(=O)c2ccc(CNCCO)cn2)cccc1-c1cccc(NC(=O)c2cc(NCCO)c3c(n2)CN(CCO)CC3)c1Cl [Compound 18] | 8.50 | 3.77 | 7.10 | 7.15
2 | Cc1cc(C(=O)Nc2cccc(-c3cccc(Nc4nc(C(F)F)nc5cc(CN6CC[C@@H](O)C6)cnc45)c3C)c2Cl)nc2c1CCN(CC(=O)O)C2 [Compound 23] | 8.43 | 4.84 | 7.74 | 9.66
